Test results published in publication PMC9937801 (Journal of Pharmaceutical Analysis, 2022).

Target: squalene epoxidase (SQLE) (Homo sapiens, UniProt Q14534)
Test: SPR
Format: binding

Chain of squalene epoxidase (SQLE) (Q14534 whole entry): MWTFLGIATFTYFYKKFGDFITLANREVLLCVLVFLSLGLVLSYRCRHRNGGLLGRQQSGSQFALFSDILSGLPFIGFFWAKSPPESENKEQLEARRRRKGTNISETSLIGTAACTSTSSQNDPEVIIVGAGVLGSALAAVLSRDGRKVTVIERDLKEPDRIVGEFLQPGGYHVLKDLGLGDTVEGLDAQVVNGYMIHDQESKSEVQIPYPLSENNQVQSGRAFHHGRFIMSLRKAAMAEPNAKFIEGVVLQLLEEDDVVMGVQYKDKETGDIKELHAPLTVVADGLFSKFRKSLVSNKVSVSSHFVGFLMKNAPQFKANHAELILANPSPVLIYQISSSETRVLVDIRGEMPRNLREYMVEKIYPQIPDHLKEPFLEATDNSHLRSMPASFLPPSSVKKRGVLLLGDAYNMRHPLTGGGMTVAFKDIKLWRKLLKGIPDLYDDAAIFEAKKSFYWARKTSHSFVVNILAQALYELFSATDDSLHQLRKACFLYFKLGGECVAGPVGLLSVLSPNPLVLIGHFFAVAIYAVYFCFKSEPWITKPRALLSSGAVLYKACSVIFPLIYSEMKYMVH

C[C@@H]1CC[C@@]2(OC1)O[C@H]1C[C@H]3[C@@H]4CC=C5C[C@@H](O[C@@H]6O[C@H](CO)[C@@H](O[C@@H]7O[C@@H](CO)[C@H](O)[C@H]7O)[C@H](O)[C@H]6O[C@@H]6O[C@@H](C)[C@H](O)[C@@H](O)[C@H]6O)CC[C@]5(C)[C@H]4CC[C@]3(C)[C@H]1[C@@H]2C [PPI, Polyphyllin I]
Kd: 26.3 µM
